For one assay, the target named is T1, Wt-hMLKL (Homo sapiens, UniProt Q8NB16).
T1 construct: purchased Abcam ab241453
T1 sequence (Q8NB16 1-471): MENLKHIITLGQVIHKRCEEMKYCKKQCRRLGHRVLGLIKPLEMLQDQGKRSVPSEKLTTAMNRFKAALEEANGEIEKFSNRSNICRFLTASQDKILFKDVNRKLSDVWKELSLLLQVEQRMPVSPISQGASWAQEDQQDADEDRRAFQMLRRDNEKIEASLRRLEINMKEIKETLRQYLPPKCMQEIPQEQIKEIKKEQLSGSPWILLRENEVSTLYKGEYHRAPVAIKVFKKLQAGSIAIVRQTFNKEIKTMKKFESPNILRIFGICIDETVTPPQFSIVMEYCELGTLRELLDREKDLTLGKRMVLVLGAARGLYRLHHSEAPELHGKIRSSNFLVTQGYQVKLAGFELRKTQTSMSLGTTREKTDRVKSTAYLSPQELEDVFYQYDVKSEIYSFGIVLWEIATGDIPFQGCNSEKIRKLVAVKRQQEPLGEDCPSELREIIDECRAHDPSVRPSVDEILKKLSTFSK
Nature of the assay: SPR binding to Wt-hMLKL. As to conditions: for pKd: SPR, CM5 chip, 25 °C. The text has this: The hMLKL plasmid (RC213152, OriGene, Rockville, MD, USA), and recombinant Wt-hMLKL (ab241453, Abcam) and Wt-mMLKL (MBS1379843, MyBioSource, San Diego, CA, USA) proteins were purchased. Nt-hMLKL (2–154), Nt-mMLKL (1–180), and Ct-hMLKL (183–471) were generated using the pBT7-N-His vector. Nt-hMLKL^C86A, Nt-hMLKL^F148A, -hMLKL^C86A/L89A/D94A, and Nt-hMLKL^R145A/R146A/F148A/M150A were generated using the Site-directed Mutagenesis Kit (EZ004S, Enzynomics, S. Korea). These constructs were subcloned into pBT7-N-His and pET-15b plasmid vectors. E. coli BL21 cells transformed with the cloned expression vectors were cultured in LB medium and supplemented with 100 μg/mL ampicillin until an OD at 600 nm of 0.5–0.6 was reached. The cultures were induced by 1 mM IPTG (367-93-1, Sigma-Aldrich). The cells were lysed and centrifuged. The clear supernatants were subjected to Ni-NTA affinity chromatography (175018169, QIAGEN, Hilden, Germany). Plasmids encoding mMLKL (1–464)–gyrase fusion constructs were kindly provided by Prof. James Murphy (Cell Signalling and Cell Death Division, The Walter and Eliza Hall Institute of Medical Research, Parkville, Victoria 3052, Australia).
The interactions of Wt-hMLKL, Wt-mMLKL, Nt-mMLKL, Nt, and Ct-hMLKL proteins with Re-APO or Ox-APO were detected through SPR analysis using Biacore™ T200 (Cytiva, Marlborough, MA, USA). Each MLKL protein was immobilized on a CM5 sensor chip. To derive the Rligand values, coupling processes were performed based on the molecular weights of the MLKL protein (MW ligand) and Re-APO or Ox-APO (MW analyte). Re-APO or Ox-APO was injected into an HBS buffer (10 mM HEPES, 150 mM NaCl, 3.4 mM EDTA, and 0.005% Tween 20, pH 7.4) at 25 °C (10 μL/min flow rate). Sensorgrams were recorded and analyzed in real-time using the control software in the BIAcore T200 system. All data were analyzed using the BIA evaluation software (Cytiva).
In general terms: Surface plasmon resonance follows binding to a sensor surface in real time, without labels.

The test system of the next assay is p-MLKL oligomer. Nature of the assay: MLKL oligomerization Western blot (non-reducing/reducing) in THP-1 cells. It counts as cell-based, human. As to conditions: THP-1, TBZ, 8 h; for tetramerization and octamerization of p-MLKL: non-reducing conditions; for phosphorylation levels of RIP1, RIP3 and MLKL: reducing conditions. The method, then:
Fig. 2 Effect of redox-sensitive APO on MLKL oligomerization. A Chemical structure of APO. APO undergoes auto-oxidation to form the oxidized form (Ox-APO), while the addition of DTT preserves the reduced form (Re-APO). The red highlights indicate the sites where APO loses hydrogen and electrons during the oxidation process. B Real-time 1D ^1H NMR spectra showing the degree of oxidation of APO. APO was dissolved from its powdered form in DPBS and incubated at 25 °C for 36 h. Real-time 1D ^1H NMR spectra were measured at a 2 h intervals after filtration through a 0.2 μm syringe filter to remove precipitates. […] C MLKL oligomerization is inhibited by APO. THP-1 cells were treated with TBZ and Re-APO or Ox-APO for 8 h. Western blot analysis of WCLs was performed under non-reducing and reducing conditions using the indicated antibodies. Percentage changes of p-MLKL oligomer band relative to GAPDH were shown. The p value for MLKL oligomer band intensity was calculated based on the average intensity of the tetramer and octamer bands. Octa octamer, Tetra tetramer, Mono monomer. Mean ± SEM (n = 3). **p < 0.001, ns not significant, one-way ANOVA. D THP-1 cells were treated with TBZ and Ox-APO or Re-APO for 8 h and then stained with DAPI and MLKL for confocal microscopy. In the intensity graph, green indicates MLKL. The signal intensity of MLKL fluorescence from the plasma membrane to the cytosol was measured using FluoView FV1000 software. Mean ± SEM (n > 100). **p < 0.01, ***p < 0.001, one-way ANOVA. E J774A.1 mouse monocytic cells were treated with TBZ and 20 μM Re-APO or Ox-APO for 8 h. Western blot analysis of WCLs was performed under non-reducing and reducing conditions using the indicated antibodies.
The cells were harvested and lysed in 1× RIPA buffer (R4100-010, GenDEPOT, Katy, TX, USA) containing protease (P3100-001, GenDEPOT) and phosphatase (1862495, Thermo Fisher Scientific) inhibitors. WCLs were then centrifuged at 20,000×g for 30 min at 4 °C and subjected to non-reducing or reducing 8–12% SDS-PAGE gel electrophoresis. The membrane was blocked with 5% non-fat milk in TBS and probed with antibodies. Antibodies to hMLKL (14993S), mMLKL (97705S), phospho-hMLKL (Ser358) (91689S), phospho-mMLKL (Ser345) (37333S), phospho-hRIP1 (Ser166) (65746S), mRIP1 (3493S), phospho-mRIP1 (Ser321) (38662S), phospho-hRIP3 (Ser227) (93654), mRIP3 (95702S), p-mRIP3 (Thr231/Ser232) (91702S), and LDH (2012S) (Cell Signaling Technology, Danvers, MA, USA), and GAPDH (LF-PA0018, Abfrontier, S. Korea), hRIP1 (ab72139, Abcam, Cambridge, UK), hRIP3 (sc-135170, Santa Cruz Biotechnology, Dallas, TX, USA), HMGB1 (ab78923, Abcam), and LAMP1 (ab24170, Abcam) antibodies were used.

Usually pKd stands for the Kd on a negative log10 scale, so that one unit is a factor of ten.

pKd: −log10 of the molar value.

`CN1CCc2cccc3c4c(cc1c23)C=CC(=O)C4=O` [Ox-APO] gave a pKd at Wt-hMLKL of 8.30. The “fold stronger binding than Re-APO” value on Wt-hMLKL (from KD values) was ~ 50 fold. In the assay with p-MLKL oligomer, the “tetramerization and octamerization of p-MLKL” value was “strongly inhibited”; the “phosphorylation levels of RIP1, RIP3 and MLKL” value is recorded as “little effect”.
`CN1CCc2cccc3c2C1Cc1ccc(O)c(O)c1-3` (stereo not shown) [Re-APO] had a pKd on Wt-hMLKL of 6.61. Besides, in the assay with p-MLKL oligomer, the “tetramerization and octamerization of p-MLKL” value was “less effective than Ox-APO”; the “phosphorylation levels of RIP1, RIP3 and MLKL” value is “little effect”.
